# Test results reported in patent publication US20240262844A1, “PYRIDINIUM SALTS AND METHODS OF USE” (UNIVERSITY OF WYOMING, priority 2023, published 2024).
# Entries after “also recorded” stand apart in the source; their conditions may differ. Structures can show the parent of a compound that is named as a salt.
# Test system: HEK293T lysates
# Assay: Chemoproteomic profiling of HEK293T lysates (protein-level enrichment)
# Assay type: biochemical, Human
# Procedure: In lysate tryptophan probe treatment for protein-level characterization: HEK293T cell pellets were suspended in native lysis buffer (50 mM HEPES pH 7.5, 150 mM sodium chloride (NaCl), 1.5 mM MgCl2, 1 mM DTT, 0.8% NP-40, 5% glycerol, and 1x protease inhibitors (Thermo)) at 2x the pellet volume. The samples were sonicated on ice for 30 seconds at 20% amplitude with a 2 second pulse ON and 3 second pulse OFF. Cell debris was removed by centrifugation at 20,000×g for 20 minutes at 4° C. Protein concentration was determined by bicinchoninic acid (BCA) (Pierce) and diluted down to 5 mg/mL with ChemProt buffer (50 mM HEPES pH 7.5, 150 mM NaCl, 1.5 mM MgCl2, 1 mM DTT, 0.4% NP-40, and 1x protease inhibitors (Thermo). 5 mg cell lysates were treated with 100x stocks of the tryptophan probes (pyridinium salts 1a, 1b, and 2b) to generate final concentrations (0, 1, 10, and 100 μM) in 1% DMSO. Lysates were incubated for 1 hour at 4° C. followed by photo-activation at respective wavelengths for 20 minutes at 4° C. Excess probe was removed using Sephadex G-25 PD-10 desalting columns (GE Healthcare) pre-equilibrated with 50 mM HEPES pH 7.5, 150 mM NaCl, 1.5 mM MgCl2, and 0.4% NP-40. The samples were then treated with 100 μL Neutravidin resin as a 50% slurry (Peirce). The samples were incubated overnight on a rotating apparatus at R.T. The following day, the beads were transferred to a MobiCol column (Boca Scientific), washed 3× with phosphate buffered saline (PBS) containing 0.2% SDS, washed 3x with PBS, and the enriched proteins were eluted with 2×NuPAGE lithium dodecyl sulfate (LDS) containing 10 mM DTT (Pierce) and heated for 30 minutes at 55° C. The eluent was collected and subsequently treated with 20 mM iodoacetamide (Pierce) for 30 minutes at R.T. protected from light. Samples were passed through detergent removal columns (Pierce) that were pre-equilibrated with 50 mM HEPES pH 8.0. The samples were treated with 2.5 μg Trypsin/LysC (Promega) at 37° C. for 16 hours. The following day, the sample was collected and prepped for isobaric labeling with TMT reagents (Thermo) as specified by the manufacturer.
# Quantitative proteomics by two-dimensional nano liquid chromatography-tandem mass spectrometry (nLC-MS/MS): For protein-level characterization, the TMT-labeled sample were reconstituted in 0.1% formic acid (FA)/2% acetonitrile for offline high-pH reversed phase separation (RP10) using a Dionex UltiMate 3000 high-performance liquid chromatography (HPLC) system with fraction collection using Chromeleon v.6.8 (Thermo) software. Separation was achieved on a Waters Xbridge C18 3.5 μm 2.1×150 mm HPLC column (Waters) using a flow rate of 250 μL min-1 and the following ternary gradient and conditions: mobile phase A=water (HPLC grade), mobile phase B=acetonitrile (HPLC grade), and mobile phase C=200 mM ammonium acetate, pH 10. Mobile phase C is held at 10% throughout gradient. Starting conditions are 89% mobile phase A and 1% mobile phase B, ramping mobile phase B to 80% over 65 min. Fractions were collected in 96-well plates at 100 see per well. Fractions were reduced down to 12 fractions, dried, and reconstituted in 0.1% FA/2% acetonitrile for nLC-MS/MS. All data were acquired using a Orbitrap Fusion Lumos coupled to an Easy-nLC 1200 nanoflow liquid chromatograph operating at 300 nL min^−1. Peptides were cleaned up using a 1 cm online custom trap then eluted on a custom 20 cm laser pulled 75 μm column with C18 resin. Peptides were quantified using the synchronous precursor selection (SPS-MS3) or HCD method for TMT quantitation with 120k MS1 resolving power, 50 ms max injection time and 100% AGC. MS2 spectra were selected using the top ten most abundant features with a charge state between 2-6 using CID (collision induced dissociation) in the ion trap. The AGC was set to 100% with an isolation width of 0.7. MS3 was performed on the top 10 most abundant MS2 features between 400-1600 amu with a collision energy of 55%, AGC of 250%, and 50k resolution. […]
structure (smiles),measurement,setting,value
"COc1ccc2cc(-c3cc(C)[n+](N(C)C(=O)OCCCCC[C@H]4SC[C@H]5NC(=O)N[C@H]54)c(C)c3)ccc2c1 (stereo in doubt) [Pyridinium salt 2b, 4-(6-methoxynaphthalen-2-yl)-2,6-dimethyl-1-(methyl(((5-((3aR,4R,6aS)-2-oxohexahydro-1H-thieno[3,4-d]imidazol-4-yl)pentyl)oxy)carbonyl)amino)pyridin-1-ium tetrafluoroborate]","proteome labeling profile, streptavidin-HRP Western blot of elution profiles","0-100 μM probe, with and without irradiation, before digestion",concentration and optically dependent proteome labeling profiles; also recorded: dose-response profiles
same,number of proteins identified (from ≥2 unique peptides) with ≥2-fold enrichment versus DMSO,"about 100 μM probe, 60 min incubation, 20 min irradiation (302 nm 1a, 320 nm 1b, 440 nm 2b)",523 proteins
same,percentage of unique enriched proteins,"comparison of proteome coverage of probes 1a, 1b, 2b at 100 μM",about 69%
same,reactivity in the absence of photoirradiation,enrichment profiles with and without photoirradiation,thermal inertness
